Data: paper PMC12205066, “Lysosomal EGFR acts as a Rheb-GEF independent of its kinase activity to activate mTORC1” (Cell Research, 2025)

Target: T1, Rheb (Homo sapiens, UniProt Q15382)
T1 construct: GST-tagged Rheb amino acids 1–169
Assay: RP-HPLC of nucleotide released from purified denatured GST-Rheb
Format: binding

T1 sequence (Q15382 1-169): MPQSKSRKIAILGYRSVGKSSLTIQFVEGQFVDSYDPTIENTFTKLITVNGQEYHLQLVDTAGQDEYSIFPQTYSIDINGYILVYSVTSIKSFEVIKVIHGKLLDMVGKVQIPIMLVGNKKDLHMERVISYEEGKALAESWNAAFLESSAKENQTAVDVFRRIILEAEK

SMILES: Nc1nc2c(ncn2[C@@H]2O[C@H](CO[P@](=O)(O)OP(=O)(O)O)[C@@H](O)[C@H]2O)c(=O)[nH]1 [GDP]
- RP-HPLC of nucleotide released from purified denatured GST-Rheb: glutathione-S-transferase (GST)-tagged Rheb, which had a substantial GDP-bound fraction
